Our source for the IC50 values is patent US8211935B2, “Heterocyclic derivatives for modulation of calcium channels” (Vertex Pharmaceuticals Incorporated, priority 2004, dated 2012).

Read-outs that look alike come from different tables or passages of the source.

By IC50 is commonly meant the concentration needed to halve the response being measured.

The experiment concerns the target T1, CaV2.2 (Homo sapiens, UniProt Q00975).
T1 construct: expressed in transfected cells; host or cells: HEK293
Briefly: VIPR optical membrane potential assay with electrical stimulation. Format: cell-based. The procedure, abridged:
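HEK293 cells stably expressing CaV2.2, stained with CC2-DMPE (10 μM final) and oxonol voltage-sensitive dyes, compound added with BaCl2. Membrane potential response evoked by 3-5 s electrical stimulation. Read as background-subtracted 460/580 nm emission ratio, response R=Rf/Ri, normalized to mibefradil positive and no-drug negative controls.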

Setting [1] is: Table 3, biological assay data, read-out: IC50.

T1 sequence (Q00975 whole entry): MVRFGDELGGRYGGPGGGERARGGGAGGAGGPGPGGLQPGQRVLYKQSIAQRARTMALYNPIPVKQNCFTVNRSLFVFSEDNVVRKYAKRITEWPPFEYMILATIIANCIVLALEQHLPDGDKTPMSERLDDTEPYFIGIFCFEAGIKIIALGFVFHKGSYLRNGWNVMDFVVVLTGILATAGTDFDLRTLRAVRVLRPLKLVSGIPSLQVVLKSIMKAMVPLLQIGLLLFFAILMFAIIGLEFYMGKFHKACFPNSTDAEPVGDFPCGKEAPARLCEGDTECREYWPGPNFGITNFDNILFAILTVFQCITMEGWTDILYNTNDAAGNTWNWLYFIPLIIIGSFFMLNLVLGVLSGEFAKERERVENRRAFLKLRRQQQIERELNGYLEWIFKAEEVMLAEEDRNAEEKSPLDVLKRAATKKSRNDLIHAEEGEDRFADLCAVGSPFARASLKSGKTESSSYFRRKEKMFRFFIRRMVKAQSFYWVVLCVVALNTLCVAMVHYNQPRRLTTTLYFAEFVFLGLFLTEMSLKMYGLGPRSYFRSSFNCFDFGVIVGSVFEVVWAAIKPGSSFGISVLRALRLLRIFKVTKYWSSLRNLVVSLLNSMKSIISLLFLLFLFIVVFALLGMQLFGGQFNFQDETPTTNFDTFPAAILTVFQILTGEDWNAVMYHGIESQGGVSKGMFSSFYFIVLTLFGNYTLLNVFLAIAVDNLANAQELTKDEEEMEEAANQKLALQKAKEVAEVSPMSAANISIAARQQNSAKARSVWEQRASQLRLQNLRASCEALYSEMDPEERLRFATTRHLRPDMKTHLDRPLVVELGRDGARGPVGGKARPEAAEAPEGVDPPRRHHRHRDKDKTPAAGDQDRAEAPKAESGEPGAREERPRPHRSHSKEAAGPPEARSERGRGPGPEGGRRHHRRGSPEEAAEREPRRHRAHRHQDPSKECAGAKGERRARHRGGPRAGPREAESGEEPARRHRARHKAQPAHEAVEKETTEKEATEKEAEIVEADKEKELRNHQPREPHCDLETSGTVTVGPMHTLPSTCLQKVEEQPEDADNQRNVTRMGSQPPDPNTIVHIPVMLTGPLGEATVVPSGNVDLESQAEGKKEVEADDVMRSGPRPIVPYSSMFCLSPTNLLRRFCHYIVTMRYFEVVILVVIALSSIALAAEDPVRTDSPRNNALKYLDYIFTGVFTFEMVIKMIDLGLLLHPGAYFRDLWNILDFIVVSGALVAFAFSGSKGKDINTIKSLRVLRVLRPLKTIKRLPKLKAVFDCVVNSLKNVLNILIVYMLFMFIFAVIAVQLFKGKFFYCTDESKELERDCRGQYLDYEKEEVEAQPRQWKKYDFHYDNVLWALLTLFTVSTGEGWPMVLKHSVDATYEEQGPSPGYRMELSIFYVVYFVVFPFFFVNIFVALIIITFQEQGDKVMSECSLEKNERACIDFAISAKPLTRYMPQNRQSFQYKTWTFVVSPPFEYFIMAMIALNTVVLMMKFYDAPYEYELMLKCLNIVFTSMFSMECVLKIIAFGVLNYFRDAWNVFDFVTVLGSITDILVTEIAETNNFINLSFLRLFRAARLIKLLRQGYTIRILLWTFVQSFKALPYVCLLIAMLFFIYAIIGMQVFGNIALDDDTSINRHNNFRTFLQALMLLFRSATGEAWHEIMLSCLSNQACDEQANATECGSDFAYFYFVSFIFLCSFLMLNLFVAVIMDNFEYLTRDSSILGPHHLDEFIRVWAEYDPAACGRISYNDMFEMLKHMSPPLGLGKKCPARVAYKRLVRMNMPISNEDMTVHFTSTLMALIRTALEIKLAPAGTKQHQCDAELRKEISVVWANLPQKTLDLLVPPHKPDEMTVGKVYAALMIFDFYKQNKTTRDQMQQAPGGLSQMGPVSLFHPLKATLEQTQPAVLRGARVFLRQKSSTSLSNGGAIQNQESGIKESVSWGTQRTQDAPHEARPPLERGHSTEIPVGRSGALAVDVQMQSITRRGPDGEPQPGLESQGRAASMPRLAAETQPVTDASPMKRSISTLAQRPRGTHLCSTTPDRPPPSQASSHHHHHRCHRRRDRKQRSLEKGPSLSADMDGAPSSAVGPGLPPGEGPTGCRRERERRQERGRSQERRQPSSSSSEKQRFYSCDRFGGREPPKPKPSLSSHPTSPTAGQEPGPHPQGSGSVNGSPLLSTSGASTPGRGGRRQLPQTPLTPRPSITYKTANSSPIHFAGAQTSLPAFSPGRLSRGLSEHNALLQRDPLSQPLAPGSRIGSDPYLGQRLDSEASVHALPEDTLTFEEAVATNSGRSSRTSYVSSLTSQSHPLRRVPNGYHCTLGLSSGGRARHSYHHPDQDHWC
T1 sequence (P54284 whole entry partner): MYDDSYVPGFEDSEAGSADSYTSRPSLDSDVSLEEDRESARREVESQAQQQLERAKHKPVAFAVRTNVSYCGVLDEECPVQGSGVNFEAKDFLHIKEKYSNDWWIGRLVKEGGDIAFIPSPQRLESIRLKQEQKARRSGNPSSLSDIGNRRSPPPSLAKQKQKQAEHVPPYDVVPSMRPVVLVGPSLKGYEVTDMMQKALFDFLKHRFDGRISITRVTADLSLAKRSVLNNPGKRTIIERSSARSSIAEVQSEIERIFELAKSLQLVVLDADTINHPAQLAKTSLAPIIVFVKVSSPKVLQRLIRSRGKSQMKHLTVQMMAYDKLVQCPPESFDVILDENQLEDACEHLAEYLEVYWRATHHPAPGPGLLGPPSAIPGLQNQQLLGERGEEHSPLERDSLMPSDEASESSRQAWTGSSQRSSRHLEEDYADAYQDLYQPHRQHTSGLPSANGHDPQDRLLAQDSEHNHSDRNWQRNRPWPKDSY
T1 sequence (P54289 25-946 partner limits assumed): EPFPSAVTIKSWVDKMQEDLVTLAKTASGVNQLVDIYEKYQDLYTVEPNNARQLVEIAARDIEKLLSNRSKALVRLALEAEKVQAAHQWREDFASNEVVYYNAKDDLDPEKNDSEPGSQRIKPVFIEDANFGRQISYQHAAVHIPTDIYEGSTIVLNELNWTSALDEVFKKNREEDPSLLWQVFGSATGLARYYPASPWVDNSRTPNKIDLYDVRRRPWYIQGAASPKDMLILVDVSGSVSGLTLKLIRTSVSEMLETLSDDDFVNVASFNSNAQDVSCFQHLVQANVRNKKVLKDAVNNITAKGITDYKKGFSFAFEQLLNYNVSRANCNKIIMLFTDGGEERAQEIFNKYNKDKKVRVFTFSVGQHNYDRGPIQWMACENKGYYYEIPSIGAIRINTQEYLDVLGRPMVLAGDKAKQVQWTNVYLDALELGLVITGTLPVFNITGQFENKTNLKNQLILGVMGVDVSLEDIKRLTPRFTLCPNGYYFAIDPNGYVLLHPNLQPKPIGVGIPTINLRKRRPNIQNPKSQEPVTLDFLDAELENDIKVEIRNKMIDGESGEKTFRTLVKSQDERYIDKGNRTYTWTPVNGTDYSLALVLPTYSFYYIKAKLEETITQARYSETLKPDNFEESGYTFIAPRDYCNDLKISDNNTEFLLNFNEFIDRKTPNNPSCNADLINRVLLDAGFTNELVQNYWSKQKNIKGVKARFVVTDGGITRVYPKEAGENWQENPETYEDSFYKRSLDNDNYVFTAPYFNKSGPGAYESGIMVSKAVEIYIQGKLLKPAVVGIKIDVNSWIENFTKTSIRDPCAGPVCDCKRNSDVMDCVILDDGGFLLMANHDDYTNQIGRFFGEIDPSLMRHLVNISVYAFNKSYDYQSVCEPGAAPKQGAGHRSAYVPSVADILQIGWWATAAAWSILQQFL
T1 sequence (P54289 947-1103 partner limits assumed): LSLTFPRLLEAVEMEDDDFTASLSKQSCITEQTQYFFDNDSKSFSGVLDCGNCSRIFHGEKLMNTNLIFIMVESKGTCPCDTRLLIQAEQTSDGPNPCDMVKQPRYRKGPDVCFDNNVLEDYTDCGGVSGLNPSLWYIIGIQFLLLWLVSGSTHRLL

With `CC1CCN(S(=O)(=O)c2ccc3oc(C(=O)NC4CCCCC4)cc3c2)CC1` [compound 219], the half-inhibitory concentration (IC50) under setting [1] was in the range of 5 to 20 µM. In the case of `CN1CCN(C(=O)c2cc3cc(S(=O)(=O)N4CCCCCC4)ccc3[nH]2)CC1` [compound 220], the IC50 under setting [1] was in the range of 5 to 20 µM. Same read-out and setting: the value for `CCNC(=O)c1[nH]c2ccc(S(=O)(=O)N3CC(C)CC(C)C3)cc2c1C` (stereo not drawn) [compound 221] was 5 to 20 µM; that for `O=C(c1cc2cc(S(=O)(=O)N3CCCCCC3)ccc2o1)N1CCCC1` [compound 222] was 5 to 20 µM. In the case of `Cc1c(C(=O)NCCCc2ccccc2)[nH]c2ccc(S(=O)(=O)N3CCC(C)CC3)cc12` [compound 223], under setting [1], the 50% inhibitory concentration (IC50) is below 5 µM. The same measure, in the same setting: with `Cc1c(C(=O)NC2CC2)oc2ccc(S(=O)(=O)Nc3ccccc3)cc12` [compound 224] the figure was 5 to 20 µM. On the same count and under the same terms, the value for `CC1CC(C)CN(S(=O)(=O)c2ccc3oc(C(=O)NCCC4CCOCC4)cc3c2)C1` (stereo not drawn) [compound 225] was below 5 µM; that for `CC1CC(C)CN(C(=O)c2cc3cc(S(=O)(=O)N4CCCCCC4)ccc3o2)C1` (stereo not drawn) [compound 226] was below 5 µM; that for `Cc1c(C(=O)N2CCCC(C)C2)[nH]c2ccc(S(=O)(=O)N3CC(C)CC(C)C3)cc12` (stereo not drawn) [compound 227] was below 5 µM. Still for that read-out and setting: the value for `Cc1c(C(=O)NC2CC2)oc2ccc(S(=O)(=O)Nc3ccc(F)cc3)cc12` [compound 228] was below 20 µM; that for `CCCCN(C)C(=O)c1cc2cc(S(=O)(=O)N3CC(C)CC(C)C3)ccc2o1` (stereo not drawn) [compound 229] was below 5 µM; that for `CCN(CC)C(=O)c1cc2cc(S(=O)(=O)N3CC(C)CC(C)C3)ccc2n1CCCN(C)C` (stereo not drawn) [compound 230] was 5 to 20 µM. Take `CC1CCN(S(=O)(=O)c2ccc3oc(C(=O)N4CCCC4)cc3c2)CC1` [compound 231]: the 50% inhibitory concentration (IC50) under setting [1] fell in the range of 5 to 20 µM. `Cc1c(C(=O)N2CCC3(CC2)OCCO3)[nH]c2ccc(S(=O)(=O)N3CCCCCC3)cc12` [compound 232] gave an IC50 of 5 to 20 µM. In the case of `Cc1c(C(=O)N2CC(C)CC(C)C2)oc2ccc(S(=O)(=O)N3CCCC(C)C3)cc12` (stereo not drawn) [compound 233], under setting [1], the IC50 is below 5 µM. Take `CC1CCN(S(=O)(=O)c2ccc3oc(C(=O)NC(C)C)cc3c2)CC1` [compound 234]: the IC50 under setting [1] is below 5 µM.

For `CCOC(=O)N1CCN(C(=O)c2[nH]c3ccc(S(=O)(=O)N4CCCCCC4)cc3c2C)CC1` [compound 235], the IC50 under setting [1] is 5 to 20 µM. On the same count and under the same terms, the value for `Cc1c(C(=O)N2CCSCC2)oc2ccc(S(=O)(=O)N3CCC(C)CC3)cc12` [compound 236] was 5 to 20 µM. The same measure, in the same setting: the value for `Cc1c(C(=O)NC2CC2)oc2ccc(S(=O)(=O)NCc3ccccc3)cc12` [compound 237] was below 20 µM; that for `Cc1c(C(=O)NCC2CCCO2)oc2ccc(S(=O)(=O)N3CCC(C)CC3)cc12` (stereo not drawn) [compound 238] was 5 to 20 µM. Still for that read-out and setting: with `Cc1c(C(=O)N2CCCCC2C)[nH]c2ccc(S(=O)(=O)N3CCC(C)CC3)cc12` (stereo not drawn) [compound 239] the figure was 5 to 20 µM; with `CC1CC(C)CN(S(=O)(=O)c2ccc3oc(C(=O)N4CCCCCC4)cc3c2)C1` (stereo not drawn) [compound 240], below 5 µM; with `CC1CC(C)CN(S(=O)(=O)c2ccc3[nH]c(C(=O)N4CCCCC4C)cc3c2)C1` (stereo not drawn) [compound 241], below 5 µM. For `Cc1c(C(=O)NCC2CCOCC2)oc2ccc(S(=O)(=O)N3CC(C)CC(C)C3)cc12` (stereo not drawn) [compound 242], under setting [1], the half-maximal inhibitory concentration (IC50) was below 5 µM. As to `Cc1c(C(=O)N2CC(C)CC(C)C2)oc2ccc(S(=O)(=O)N3CCCCCC3)cc12` (stereo not drawn) [compound 243], the IC50 under setting [1] lay in the range of 5 to 20 µM. On the same count and under the same terms, with `CCN(CC)C(=O)c1cc2cc(S(=O)(=O)N3CCC(C)CC3)ccc2n1C` [compound 244] the figure was below 5 µM. Same read-out and setting: with `COc1ccccc1CNC(=O)c1oc2ccc(S(=O)(=O)N3CCCCCC3)cc2c1C` [compound 245] the figure was 5 to 20 µM. Same read-out and setting: with `CC1CCN(S(=O)(=O)c2ccc3oc(C(=O)N4CCCCCC4)cc3c2)CC1` [compound 246] the figure was below 5 µM. In the case of `Cc1c(C(=O)NC2CCCC2)oc2ccc(S(=O)(=O)N3CC(C)CC(C)C3)cc12` (stereo not drawn) [compound 247], the IC50 under setting [1] was below 5 µM. On the same count and under the same terms, the value for `O=C(NCCc1ccccc1)c1cc2cc(S(=O)(=O)N3CCCCCC3)ccc2[nH]1` [compound 248] was below 5 µM; that for `Cc1c(C(=O)NCC2CCCO2)oc2ccc(S(=O)(=O)N3CCCCCC3)cc12` (stereo not drawn) [compound 249] was 5 to 20 µM; that for `CCN(CC)S(=O)(=O)c1ccc2oc(C(=O)NCc3ccccc3)c(C)c2c1` [compound 250] was 5 to 20 µM. For `CC1CC(C)CN(S(=O)(=O)c2ccc3[nH]c(C(N)=O)cc3c2)C1` (stereo not drawn) [compound 251], under setting [1], the IC50 fell in the range of 5 to 20 µM. For `O=C(c1cc2cc(S(=O)(=O)N3CCCCCC3)ccc2[nH]1)N1CCC2(CC1)OCCO2` [compound 252], the half-inhibitory concentration (IC50) lay within 5 to 20 µM. Same read-out and setting: the value for `Cc1c(C(=O)N2CCC3(CC2)OCCO3)[nH]c2ccc(S(=O)(=O)N3CC(C)CC(C)C3)cc12` (stereo not drawn) [compound 253] was below 5 µM. Consider `CCCN(CC1CC1)C(=O)c1cc2cc(S(=O)(=O)N3CC(C)CC(C)C3)ccc2[nH]1` (stereo not drawn) [compound 254], for which the half-inhibitory concentration (IC50) under setting [1] was below 5 µM. On to `COc1ccc(CNS(=O)(=O)c2ccc3oc(C(=O)NC4CC4)c(C)c3c2)cc1` [compound 255], for which the IC50 under setting [1] was below 20 µM. Same read-out and setting: the value for `CCNC(=O)c1oc2ccc(S(=O)(=O)N3CCC(C)CC3)cc2c1C` [compound 256] was 5 to 20 µM; that for `Cc1c(C(=O)NC2CC2)oc2ccc(S(=O)(=O)N3CCCCC3)cc12` [compound 257] was below 20 µM; that for `Cc1c(C(=O)NC2CCCC2)[nH]c2ccc(S(=O)(=O)N3CCCCCC3)cc12` [compound 258] was 5 to 20 µM. Same read-out and setting: with `Cc1c(C(=O)N(C)C)oc2ccc(S(=O)(=O)N3CCOCC3)cc12` [compound 259] the figure was below 20 µM; with `Cc1c(C(=O)NC2CCCC2)oc2ccc(S(=O)(=O)N3CCCCC3)cc12` [compound 260], below 5 µM; with `Cc1c(C(=O)NC2CC2)oc2ccc(S(=O)(=O)N(C)c3ccccn3)cc12` [compound 261], below 20 µM. For `Cc1c(C(=O)N(C(C)C)C(C)C)[nH]c2ccc(S(=O)(=O)N3CCC(C)CC3)cc12` [compound 262], the 50% inhibitory concentration (IC50) under setting [1] was below 5 µM. The same measure, in the same setting: the value for `Cc1c(C(=O)N(C(C)C)C(C)C)oc2ccc(S(=O)(=O)N3CCCC(C)C3)cc12` (stereo not drawn) [compound 263] was below 5 µM; that for `Cc1c(C(=O)NC(C)C)oc2ccc(S(=O)(=O)N3CCCC(F)(F)C3)cc12` [compound 264] was below 20 µM; that for `CCNC(=O)c1cc2cc(S(=O)(=O)N3CCCCCC3)ccc2o1` [compound 265] was 5 to 20 µM.

Turning to `CC1CCN(S(=O)(=O)c2ccc3oc(C(=O)NCCC4CCOCC4)cc3c2)CC1` [compound 266], the IC50 under setting [1] is below 5 µM. On the same count and under the same terms, the value for `Cc1c(C(=O)NCc2ccccc2)oc2ccc(S(=O)(=O)N3CCOCC3)cc12` [compound 267] was below 20 µM; that for `CCN(CC)C(=O)c1cc2cc(S(=O)(=O)N3CCC(C)CC3)ccc2o1` [compound 268] was below 5 µM.

As for `Cc1c(C(=O)N2CCC(C)CC2)[nH]c2ccc(S(=O)(=O)N3CCC(C)CC3)cc12` [compound 269], the IC50 under setting [1] was 5 to 20 µM. Still for that read-out and setting: the value for `O=C(NC1CC1)c1cc2cc(N(C3CCCCC3)S(=O)(=O)c3ccccc3)ccc2[nH]1` [compound 270] was 5 to 20 µM; that for `CC1CC(C)CN(S(=O)(=O)c2ccc3oc(C(=O)NC(C)C)cc3c2)C1` (stereo not drawn) [compound 271] was below 5 µM. Still for that read-out and setting: the value for `O=C(c1cc2cc(S(=O)(=O)N3CCCCCC3)ccc2[nH]1)N1CCCC1` [compound 272] was below 20 µM. The same measure, in the same setting: with `CC1CCN(C(=O)c2cc3cc(S(=O)(=O)N4CCC(C)CC4)ccc3o2)CC1` [compound 273] the figure was below 5 µM. Take `CC1CC(C)CN(S(=O)(=O)c2ccc3[nH]c(C(=O)NC(C)C)cc3c2)C1` (stereo not drawn) [compound 274]: the IC50 under setting [1] was below 5 µM. Still for that read-out and setting: the value for `CC1CC(C)CN(S(=O)(=O)c2ccc3[nH]c(C(=O)NCC4CCOCC4)cc3c2)C1` (stereo not drawn) [compound 275] was below 5 µM; that for `CC1CC(C)CN(S(=O)(=O)c2ccc3oc(C(=O)NCc4ccccc4)cc3c2)C1` (stereo not drawn) [compound 276] was below 5 µM; that for `Cc1c(C(=O)N(C)C)oc2ccc(S(=O)(=O)N3CCCCC3)cc12` [compound 277] was below 20 µM.

`CCN(CC)S(=O)(=O)c1ccc2oc(C(=O)N(C(C)C)C(C)C)c(C)c2c1` [compound 278]: the half-maximal inhibitory concentration (IC50) under setting [1] lay in the range of 5 to 20 µM. Regarding `Cc1c(C(=O)N2CCC(C)CC2)oc2ccc(S(=O)(=O)N3CCCCC3)cc12` [compound 279], the IC50 under setting [1] was 5 to 20 µM. With `Cc1c(C(=O)N2CCCC(C)C2)oc2ccc(S(=O)(=O)N3CCCCC3)cc12` (stereo not drawn) [compound 280], under setting [1], the IC50 fell in the range of 5 to 20 µM. Still for that read-out and setting: with `Cc1c(C(=O)NCC2CCCO2)[nH]c2ccc(S(=O)(=O)N3CC(C)CC(C)C3)cc12` (stereo not drawn) [compound 281] the figure was below 5 µM; with `COc1ccc(CNC(=O)c2oc3ccc(S(=O)(=O)N4CCC(C)CC4)cc3c2C)cc1` [compound 282], below 5 µM. On the same count and under the same terms, with `Cc1c(C(=O)NCc2ccccc2)[nH]c2ccc(S(=O)(=O)N3CC(C)CC(C)C3)cc12` (stereo not drawn) [compound 283] the figure was below 5 µM. On the same count and under the same terms, with `Cc1c(C(=O)N(C(C)C)C(C)C)oc2ccc(S(=O)(=O)N3CC(C)CC(C)C3)cc12` (stereo not drawn) [compound 284] the figure was below 5 µM; with `CC1CCN(S(=O)(=O)c2ccc3[nH]c(C(=O)N(C)Cc4ccccc4)cc3c2)CC1` [compound 285], below 5 µM; with `CS(=O)(=O)Nc1ccc2[nH]c(C(=O)NC3CC3)cc2c1` [compound 286], below 20 µM. On to `Cc1c(C(=O)N2CCC3(CC2)OCCO3)oc2ccc(S(=O)(=O)N3CCC(C)CC3)cc12` [compound 287], for which the IC50 was 5 to 20 µM.

Regarding `Cc1ccc(NS(=O)(=O)c2ccc3oc(C(=O)NC4CC4)c(C)c3c2)cc1` [compound 288], the concentration for half-maximal inhibition (IC50) under setting [1] was in the range of 5 to 20 µM. On the same count and under the same terms, the value for `CC1CC(C)CN(S(=O)(=O)c2ccc3[nH]c(C(=O)NCCc4ccccc4)cc3c2)C1` (stereo not drawn) [compound 289] was below 5 µM.

For the compound `Cc1c(C(=O)N2CCN(C)CC2)[nH]c2ccc(S(=O)(=O)N3CCC(C)CC3)cc12` [compound 290], the concentration for half-maximal inhibition (IC50) under setting [1] lay within 5 to 20 µM.
